Experiments:
Format in all cases: cell-based
HOP-92 = assay: NCI antitumor screen (SRB); details: Homo sapiens, five concentrations 0.01-100 µM
[1] = tested on: leukaemia tumour cell lines; assay: NCI antitumor screen, subpanel
[2] = tested on: NSC lung cancer tumour cell lines; assay: NCI antitumor screen, subpanel
[3] = tested on: colon cancer tumour cell lines; assay: NCI antitumor screen, subpanel
[4] = tested on: CNS cancer tumour cell lines; assay: NCI antitumor screen, subpanel
[5] = tested on: melanoma tumour cell lines; assay: NCI antitumor screen, subpanel
[6] = tested on: ovarian cancer tumour cell lines; assay: NCI antitumor screen, subpanel
[7] = tested on: renal cancer tumour cell lines; assay: NCI antitumor screen, subpanel
[8] = tested on: prostate cancer tumour cell lines; assay: NCI antitumor screen, subpanel
[9] = tested on: breast cancer tumour cell lines; assay: NCI antitumor screen, subpanel
[10] = Homo sapiens, five concentrations
[11] = Homo sapiens, read-out: LC50 (subpanel average)

In the case of CCN(CC)c1ccc(/C=N/NC(=O)c2ccc(S(C)(=O)=O)cc2)c(O)c1 [Compound 20], the GI50 (HOP-92) is reported as 491 nM, the “TGI (subpanel average)” value [1] is reported as 83500 nM and the GI50 [1, 10] is reported as 230 nM. For the same compound, the CC50 [1, 11] was > 100000 nM, the “TGI (subpanel average)” value [2] was 65000 nM and the GI50 [2, 10] was 260 nM. The CC50 [2, 11] was > 100000 nM, the “TGI (subpanel average)” value [3] was “c (Compounds showed values ≥ 100 µM)” and the GI50 [3, 10] was 270 nM. For the same compound, the CC50 [3, 11] was > 100000 nM, the “TGI (subpanel average)” value [4] was 71700 nM and the GI50 [4, 10] was 220 nM. The CC50 [4, 11] was > 100000 nM, the “TGI (subpanel average)” value [5] was 45600 nM and the GI50 [5, 10] was 310 nM. For the same compound, the CC50 [5, 11] was > 100000 nM, the “TGI (subpanel average)” value [6] was 70000 nM and the GI50 [6, 10] was 1100 nM. For the same compound, the CC50 [6, 11] was > 100000 nM, the “TGI (subpanel average)” value [7] was 80300 nM and the GI50 [7, 10] was 1400 nM. The CC50 [7, 11] was > 100000 nM, the “TGI (subpanel average)” value [8] was “c (Compounds showed values ≥ 100 µM)” and the GI50 [8, 10] was 230 nM. For the same compound, the CC50 [8, 11] was > 100000 nM, the “TGI (subpanel average)” value [9] was 69500 nM and the GI50 [9, 10] was 2200 nM. The CC50 [9, 11] was > 100000 nM.

Reference: article PMC8288134, “Synthesis, potential antitumor activity, cell cycle analysis, and multitarget mechanisms of novel hydrazones incorporating a 4-methylsulfonylbenzene scaffold: a molecular docking study” (Journal of Enzyme Inhibition and Medicinal Chemistry, 2021)
